Tests used:
[1] = tested on: DNFB-induced allergic contact dermatitis; assay: Histology (H&E) of ear tissue in the ACD model; format: in vivo, mouse; design: key to score of relative inflammation (infiltrate grade): (1+) representing few lymphocytes and eosinophils above baseline levels that are scattered around blood vessels; (2+) representing increased perivascular infiltrate; (3+) representing intense perivascular infiltrate extending slightly into the interstitial collagen between vessels within the papillary dermis; (4+) representing intense diffuse lymphocytic infiltrate throughout the papillary dermis; details: 96 hours after DNFB challenge
Method: (§1) Mice examined in the allergic contact dermatitis model were euthanized 96 hours after challenge with DNFB, and the left and right ears were excised. Ears were fixed in alcoholic formalin and embedded in paraffin. Cross-sections were cut through the center of each ear anterior to posterior. Ears were stained using hematoxylin and eosin (H&E). Additionally, the inflammatory markers CD3 and ICAM-1 were stained using rat anti-mouse primary antibodies (0.2 μg/mL and 1.0 μg/mL, respectively) and detected with a mouse-absorbed goat anti-rat'horseradish peroxidase-conjugated secondary antibody (1.0 μg/mL). Endogenous peroxidase activity was blocked with H2O2 before antibody incubations and DAB exposure, and then the marker-stained slides were counterstained with Mayer's hematoxylin blued with dilute ammonium hydroxide. The sections of each ear were photographed at representative sites using a light microscope (Zeiss Axio Imager; Zeiss, Thornwood, N.Y.) with an attached digital camera (Axiocam MRc, Zeiss, Thornwood, N.Y.) operated by Zeiss AxioVision 4.6.
Mice used in the allergic contact dermatitis model were euthanized 96 hours after challenge with DNFB (72 hours after initiation of topical treatment), and the left and right ears were excised, fixed with formalin, and embedded in paraffin. Cross-sections of the middle of each ear (same position) were cut at a thickness of 4 μm and stained with hematoxylin and eosin (H&E). […] Microscopic measurements of thickness were made at 5 equidistant points on each of the photographed H&E sections. All values are expressed as mean±SD. All differences were statistically significant as determined by ANOVA for pair-wise comparison (P<0.05).
Overall, the allergic contact dermatitis hypersensitivity response developed intense perivascular lymphoid infiltrate extending into the papillary dermis with little or no change in the epidermis at 96 hours following challenge. In all samples generally >90% of the inflammatory infiltrate consisted of lymphocytes and <10% consisted of eosinophils. […]

[2] = In vitro skin permeation, Franz diffusion cells; format: in vitro ADME, rat
Method: (§2) In order to determine if the penetration and retention of full-length α-MSH could be augmented in vitro by formulations containing compounds known to improve this process, we conducted in vitro studies with 36 different formulations of α-MSH. The α-MSH powder was weighed directly into a 2 mL graduated glass vial and dissolved in water. Measured volumes of the respective vehicles were dissolved in the solution to achieve the desired percentage (w/v) of α-MSH. Hairless rats were euthanized, skin from the dorsal surface was excised, and the adherent fat and subcutaneous tissue were removed. The skin was mounted on Franz diffusion cells with the stratum corneum facing the donor compartment. The volume of the donor and receptor cells was 2.0 and 5.0 mL, respectively.
Permeation of α-MSH in these formulations was measured by applying the formulation (200 μL) on the skin surface in the donor compartment, sealed with aluminum foil and Parafilm®. […] After 24 hours, the receptor compartment was sampled, and α-MSH content was analyzed by HPLC.
(§3) Analysis of α-MSH in permeation and retention studies conducted in vitro with skin from hairless rats was performed using an HPLC system (Waters Corp, Milford, Mass.) operated by Millennium software. […] The α-MSH content in the samples was determined using the UV detector set at 230 nm, and the detection limit was determined to be 0.1 μg/mL. […]

CD3 = assay: Immunohistochemistry of ear tissue in the ACD model, CD3; format: in vivo, mouse; details: ear tissue after three days of treatment, 96 hours after DNFB challenge
Method: as §1
To assay inflammation, ear tissue of the mice was excised 96 hours after challenge with DNFB, fixed in formalin, and embedded in paraffin. […]

[3] = tested on: DNFB-induced allergic contact dermatitis; assay: Murine allergic contact dermatitis (ACD) model, ear swelling by micrometer; format: in vivo, mouse; details: concentration of 0.25% α-MSH versus 0.125% and 0.5%; topical formulations including MF21
Method: Allergic contact dermatitis was induced as previously described (8, 16). Mice were sensitized on day 0 by applying 25 μL of 0.5% DNFB in 4:1 acetone/olive oil on the shaved abdomen. Mice were challenged on day 5 with a single topical application of 15 μL of 0.2% DNFB in 4:1 acetone/olive oil on the right ear in order to induce an ACD response. The left ears were treated with a single topical application of the matched vehicle alone (4:1 acetone/olive oil) to serve as an internal control for the experiments. Beginning on day 6 (24 hours after challenge), the right ears were treated with 15 μL of topically applied α-MSH formulations or 0.5 mM dexamethasone solution and the left ears of the same mice were topically applied with the corresponding matched vehicle. […] Commercial ointment products were topically applied 20 μL per treatment as measured with a syringe and spread evenly with an applicator stick. […] The ACD response was determined by the degree of ear swelling of the hapten-exposed ear (right) compared to that of the matched vehicle-treated contra-lateral ear (left) before DNFB challenge and at 24, 48, 72, and 96 hours after challenge, as measured with a micrometer (7309, Mitutoyo, Tokyo, Japan). Percent change was determined based on 100% thickness 24 hours after challenge. […]

[4] = In vitro skin retention, Franz diffusion cells; format: in vitro ADME, rat; details: after 24 hours
Method: as §2
For the retention studies, the donor cell was removed, and the excess formulation was removed from the surface of the skin by gently wiping with a cotton swab dipped in 50% ethanol. […] The α-MSH content of each sample was analyzed by HPLC. […]
as §3

Substance: Ac-Ser-Tyr-Ser-Met-Glu-His-Phe-Arg-Trp-Gly-Lys-Pro-Val [α-MSH]
- score of relative inflammation (infiltrate grade) [1]: 1+
- inflammatory (lymphoid) infiltrate in H&E sections ([1]; three days of treatment twice per day): relatively low retention of inflammatory infiltrate
- ear swelling in H&E sections ([1]; three days of treatment twice per day, FIG. 4): complete alleviation of swelling down to slightly below baseline thickness
- permeation through the skin barrier ([2]; aqueous α-MSH in the absence of TRANSCUTOL and NMP, after 24 hours): did not permeate through the skin barrier at all
- α-MSH penetrated through 1.0 cm^2 of skin ([2]; vehicles ethanol, propylene glycol, TRANSCUTOL and LABRASOL (all four), hairless rat skin in vitro): 6.5 to 7.0 µg
- expression of the CD3 marker antigen in the lymphocytic infiltrate (CD3): greatly reduced
- reduction in ear swelling, α-MSH dose response [3]: optimal reduction in ear swelling
- α-MSH retained per gram of skin (epidermis) ([4]; in aqueous TRANSCUTOL, LABRASOL, or propylene glycol): 0.4-0.5 mg per gram of skin
- α-MSH retained per gram of skin (epidermis) ([4]; in aqueous ethanol): 1.8 mg per gram of skin
